Where a name gives a salt, the structure may show the parent alone.
Columns and labels:
[1] = system: HCT116; assay: efficacy (fitted maximal change in viability relative to DMSO control); higher = less cytotoxic (negative = loss of viability); conditions: 48 h
[2] = system: HCT116; assay: AC50 cell viability (CellTiter-Glo); higher = less potent; conditions: 48 h
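Wherever AC50 cell viability (CellTiter-Glo) is given: HCT116 colorectal carcinoma cells screened at five concentrations per compound, luminescent viability scaled between DMSO wells and empty wells on each plate, curves fitted per compound.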
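Wherever efficacy (fitted maximal change in viability relative to DMSO control) is given: Luminescence-based viability readout, five doses per compound, normalized against on-plate DMSO and empty-well controls, followed by dose-response curve fitting for every drug.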

CC1(C)C(N(O)C(=O)Nc2ccc(Cl)cc2)N(c2ccc(Cl)cc2)C(=O)N1CC(=O)N/N=C/C=C/c1ccc([N+](=O)[O-])o1 (stereo not drawn) [Eeyarestatin I]
efficacy [1]: -89.8% | AC50 cell viability [2]: 8.33 µM

O=C1Nc2ccc(Cl)cc2[C@@](C#CC2CC2)(C(F)(F)F)O1 [Efavirenz]
efficacy [1]: -97.1% | AC50 cell viability [2]: 26.3 µM

CCNCCc1ccc(CN(CC)c2cc(OC)ccc2[C@@H]2CCc3cc(O)ccc3C2)cc1 [Elacestrant]
efficacy [1]: -96.5% | AC50 cell viability [2]: 7.42 µM

CSc1ccc(C(=O)/C=C/c2cc(C)c(OC(C)(C)C(=O)O)c(C)c2)cc1 [Elafibranor]
efficacy [1]: -75.5% | AC50 cell viability [2]: 30.3 µM

NC(=O)/C(=C/n1cnc(-c2cc(C(F)(F)F)cc(C(F)(F)F)c2)n1)c1cncnc1 [Eltanexor]
efficacy [1]: -78.9% | AC50 cell viability [2]: 0.295 µM

CC[C@H]1CN2CCc3cc(OC)c(OC)cc3[C@@H]2C[C@@H]1C[C@H]1NCCc2cc(OC)c(OC)cc21 [Emetine]
efficacy [1]: -73.6% | AC50 cell viability [2]: 0.0833 µM

C[C@H](NC(=O)C(=O)Nc1ccccc1C(C)(C)C)C(=O)N[C@@H](CC(=O)O)C(=O)COc1c(F)c(F)cc(F)c1F [Emricasan]
efficacy [1]: -89.4% | AC50 cell viability [2]: 13.2 µM

CC(C)(O)CNc1nc(Nc2ccnc(C(F)(F)F)c2)nc(-c2cccc(C(F)(F)F)n2)n1 [Enasidenib]
efficacy [1]: -71.3% | AC50 cell viability [2]: 18.6 µM

COC(=O)N[C@@H](C)CNc1nccc(-c2cn(C(C)C)nc2-c2cc(Cl)cc(N[S+](C)(=O)[O-])c2F)n1 [Encorafenib]
efficacy [1]: -52.7% | AC50 cell viability [2]: 4.17 µM

Nc1ccccc1NC(=O)c1ccc(CNC(=O)OCc2cccnc2)cc1 [Entinostat]
efficacy [1]: -83.4% | AC50 cell viability [2]: 2.95 µM

c1cn2cc(-c3ccc4cn[nH]c4c3)nc(Nc3ccc(N4CCOCC4)cc3)c2n1 [Entospletinib]
efficacy [1]: -34.9% | AC50 cell viability [2]: 5.9 µM

CN1CCN(c2ccc(C(=O)Nc3n[nH]c4ccc(Cc5cc(F)cc(F)c5)cc34)c(NC3CCOCC3)c2)CC1 [Entrectinib]
efficacy [1]: -101% | AC50 cell viability [2]: 5.25 µM

C[N]1C=C(C2=CC=CC=C12)\C3=C(\C(=O)NC3=O)C4=C[N](C5CCN(CC5)CC6=NC=CC=C6)C7=C4C=CC=C7 [Enzastaurin]
efficacy [1]: -56.4% | AC50 cell viability [2]: 14.8 µM

Nc1nc(N)c2nc(-c3cccc(Cl)c3)c(N)nc2n1 [Epiblastin A]
efficacy [1]: -85% | AC50 cell viability [2]: 1.66 µM

COc1cccc2c1C(=O)c1c(O)c3c(c(O)c1C2=O)C[C@@](O)(C(=O)CO)C[C@@H]3O[C@H]1C[C@H](N)[C@@H](O)[C@H](C)O1 [Epirubicin hydrochloride]
efficacy [1]: -77.8% | AC50 cell viability [2]: 0.372 µM

COC(=O)[C@H]1[C@@H](O)[C@@]2(O)c3c(OC)cc(O[C@@H]4O[C@@H]([C@@H](O)CO)CO[C@H]4OC)cc3O[C@@]2(c2ccc(OC)cc2)[C@@H]1c1ccccc1 [Episilvestrol]
efficacy [1]: -54.9% | AC50 cell viability [2]: 8.33 µM

C/C(=C\c1csc(C)n1)[C@@H]1C[C@@H]2O[C@]2(C)CCC[C@H](C)[C@H](O)[C@@H](C)C(=O)C(C)(C)[C@@H](O)CC(=O)O1 [Epothilone B]
efficacy [1]: -49.2% | AC50 cell viability [2]: 0.00662 µM

C/C1=C/C[C@@H](/C(C)=C/c2csc(C)n2)OC(=O)C[C@H](O)C(C)(C)C(=O)[C@H](C)[C@@H](O)[C@@H](C)CCC1 [Epothilone D]
efficacy [1]: -60.3% | AC50 cell viability [2]: 0.0166 µM

CCOC1=CC=CC=C1N\2C(=O)C3=C(C=CC=C3)\N=C2C(C)N4CCN(CC4)C(=O)COC5=CC=C(Cl)C=C5 (stereo not drawn) [Erastin]
efficacy [1]: -70.4% | AC50 cell viability [2]: 3.32 µM

COc1cc(OC)cc(N(CCNC(C)C)c2ccc3ncc(-c4cnn(C)c4)nc3c2)c1 [Erdafitinib]
efficacy [1]: -123% | AC50 cell viability [2]: 13.2 µM

C=C1C[C@@H]2CC[C@@]34C[C@H]5O[C@H]6[C@@H](O3)[C@H]3O[C@H](CC[C@@H]3O[C@H]6[C@H]5O4)CC(=O)C[C@@H]3[C@@H](OC)[C@@H](C[C@H](O)CN)O[C@H]3C[C@H]3O[C@@H](CC[C@@H]1O2)C[C@@H](C)C3=C [Eribulin mesylate]
efficacy [1]: -56.4% | AC50 cell viability [2]: 0.00241 µM

C#Cc1cccc(Nc2ncnc3cc(OCCOC)c(OCCOC)cc23)c1 [Erlotinib]
efficacy [1]: -47.1% | AC50 cell viability [2]: 9.34 µM

Oc1ccc([C@@H]2Oc3ccc(O)cc3[C@@H]3CCC[C@@H]32)cc1 [Erteberel]
efficacy [1]: -73.8% | AC50 cell viability [2]: 7.42 µM

C[C@]12CC[C@@H]3c4ccc(O)cc4CC[C@H]3[C@@H]1CC[C@@H]2O [Estradiol]
efficacy [1]: -60.4% | AC50 cell viability [2]: 20.9 µM

CCOC(=O)[C@@]1(CCCCCCOc2ccc(Cl)cc2)CO1 [Etomoxir]
efficacy [1]: -42.1% | AC50 cell viability [2]: 18.6 µM

COc1cc([C@@H]2c3cc4c(cc3[C@@H](O[C@@H]3O[C@@H]5CO[C@@H](C)O[C@H]5[C@H](O)[C@H]3O)[C@H]3COC(=O)[C@H]23)OCO4)cc(OC)c1O [Etoposide]
efficacy [1]: -41.9% | AC50 cell viability [2]: 2.95 µM

C=CC(=O)N1CCC(CNc2ncnc(N)c2-c2ccc(Oc3ccccc3)cc2)CC1 [Evobrutinib]
efficacy [1]: -43.5% | AC50 cell viability [2]: 4.68 µM

CN1c2ccccc2C(=O)N2CCc3c([nH]c4ccccc34)C21 (stereo not drawn) [Evodiamine]
efficacy [1]: -64.2% | AC50 cell viability [2]: 1.66 µM

CC[C@@]1(O)C(=O)OC/C2=C1/C=C3\N(CC4=C5[C@@H](N)CCC6=C5C(=CC(=C6C)F)N=C34)C2=O [Exatecan]
efficacy [1]: -64% | AC50 cell viability [2]: 0.0417 µM

C[C@]12CC[C@H]3[C@@H](CC(=C)\C4=C\C(=O)\C=C/[C@]34C)[C@@H]1CCC2=O [Exemestane]
efficacy [1]: -65% | AC50 cell viability [2]: 18.6 µM

C=CC[C@@H]1/C=C(\C)C[C@H](C)C[C@H](OC)[C@H]2O[C@@](O)(C(=O)C(=O)N3CCCC[C@H]3C(=O)O[C@H](/C(C)=C/[C@@H]3CC[C@@H](O)[C@H](OC)C3)[C@H](C)[C@@H](O)CC1=O)[C@H](C)C[C@@H]2OC [FK-506]
efficacy [1]: -91.2% | AC50 cell viability [2]: 23.5 µM

CCN1C(=O)\C(=C/C2=C1N=C(NC3=CC=C(N4CCNCC4)C(=C3)F)N=C2)C5=CC=C(Cl)C=C5Cl [FRAX-486]
efficacy [1]: -32.6% | AC50 cell viability [2]: 2.63 µM

CCN1C(=O)\C(=C/C2=CN=C(NC3=CC=C(C=C3)N4CCN(C)CC4)N=C12)C5=C(Cl)C=C(C=C5)C6=CN=CS6 [FRAX-597]
efficacy [1]: -59% | AC50 cell viability [2]: 5.9 µM

CCOC(=N)c1nc2ccc3ncnc(Nc4cc(F)c(F)cc4Cl)c3c2s1 [FX-9847]
efficacy [1]: -41.6% | AC50 cell viability [2]: 4.68 µM

O=C1c2ccccc2-[n+]2ccc3c([nH]c4ccccc43)c21 [Fascaplysin]
efficacy [1]: -88.3% | AC50 cell viability [2]: 0.742 µM

O=[S+]([O-])(c1cccc2cnccc12)N1CCCNCC1 [Fasudil hydrochloride]
efficacy [1]: -49.1% | AC50 cell viability [2]: 18.6 µM

COC(=O)Nc1nc2cc(Sc3ccccc3)ccc2[nH]1 [Fenbendazole]
efficacy [1]: -79.7% | AC50 cell viability [2]: 1.05 µM

CC1=C(/C=C/C(C)=C/C=C/C(C)=C/C(=O)Nc2ccc(O)cc2)C(C)(C)CCC1 [Fenretinide]
efficacy [1]: -84.3% | AC50 cell viability [2]: 23.5 µM

Clc1ccc(C(Cn2ccnc2)OCc2ccc(Sc3ccccc3)cc2)c(Cl)c1 (stereo not drawn) [Fenticonazole nitrate]
efficacy [1]: -90.5% | AC50 cell viability [2]: 20.9 µM

CON(C)C(=O)N1/N=C(S[C@@]1(CCCN)C2=CC=CC=C2)/C3=CC(=CC=C3F)F [Filanesib]
efficacy [1]: -42.1% | AC50 cell viability [2]: 20.9 µM

O=C(Nc1nc2cccc(-c3ccc(CN4CC[S+](=O)([O-])CC4)cc3)n2n1)C1CC1 [Filgotinib]
efficacy [1]: -70.1% | AC50 cell viability [2]: 7.42 µM

CCCCCCCCc1ccc(CCC(N)(CO)CO)cc1 [Fingolimod hydrochloride]
efficacy [1]: -105% | AC50 cell viability [2]: 20.9 µM

CN1CC[C@H]([C@@H](O)C1)C2=C(O)C=C(O)C3=C2O\C(=C/C3=O)C4=CC=CC=C4Cl [Flavopiridol]
efficacy [1]: -63.7% | AC50 cell viability [2]: 0.186 µM

OC[C@H]1O[C@H](C[C@@H]1O)N2\C=C(F)/C(=O)NC2=O [Floxuridine]
efficacy [1]: -82.9% | AC50 cell viability [2]: 0.235 µM

COC(=O)Nc1nc2cc(C(=O)c3ccc(F)cc3)ccc2[nH]1 [Flubendazole]
efficacy [1]: -54.4% | AC50 cell viability [2]: 0.468 µM

Nc1nc(F)nc2c1ncn2[C@@H]1O[C@H](COP(=O)(O)O)[C@@H](O)[C@@H]1O [Fludarabine phosphate]
efficacy [1]: -58.2% | AC50 cell viability [2]: 7.42 µM

Cc1ncc(NC(=O)c2ccc(CN3CCN(C)CC3)c(C(F)(F)F)c2)cc1Nc1nccc(-c2cccnc2)n1 [Flumatinib mesylate]
efficacy [1]: -95.8% | AC50 cell viability [2]: 18.6 µM

NC\1=N\C(=O)N(\C=C1)[C@H]\2[C@H](O)[C@H](O)C(=C2F)\CO [Fluorocyclopentenylcytosine]
efficacy [1]: -66.3% | AC50 cell viability [2]: 0.525 µM

F\C1=C\NC(=O)NC1=O [Fluorouracil]
efficacy [1]: -64.4% | AC50 cell viability [2]: 10.5 µM

OCCN1CCN(CCCN2c3ccccc3Sc3ccc(C(F)(F)F)cc32)CC1 [Fluphenazine hydrochloride]
efficacy [1]: -94.5% | AC50 cell viability [2]: 7.42 µM

C[C@@H]1CC2C3C[C@H](F)C\4=C\C(=O)\C=C/[C@]4(C)[C@@]3(F)[C@@H](O)C[C@]2(C)[C@@]1(OC(=O)C5=CC=CO5)C(=O)SCF (stereo partly drawn) [Fluticasone furoate]
efficacy [1]: -76.9% | AC50 cell viability [2]: 20.9 µM

CC(C)n1c(/C=C/[C@H](O)C[C@H](O)CC(=O)O)c(-c2ccc(F)cc2)c2ccccc21 [Fluvastatin]
efficacy [1]: -71.8% | AC50 cell viability [2]: 9.34 µM

COc1cc2c(Oc3ccc(NC(=O)C4(C(=O)Nc5ccc(F)cc5)CC4)cc3F)ccnc2cc1OCCCN1CCOCC1 [Foretinib]
efficacy [1]: -101% | AC50 cell viability [2]: 5.9 µM

COc1cc(Nc2ncc(F)c(Nc3ccc4c(n3)N(COP(=O)(O)O)C(=O)C(C)(C)O4)n2)cc(OC)c1OC [Fostamatinib]
efficacy [1]: -70.2% | AC50 cell viability [2]: 18.6 µM
